From PMC8757511 (ACS Medicinal Chemistry Letters, 2021)
≈ marks a conversion by molar mass, not a printed value.

Assays:
[1] = test system: M. tuberculosis strain, H37Ra (ATCC 25177); experiment: microbe, parasite or virus in culture; assay type: cell-based, Mycobacterium tuberculosis; details: for MIC: Mycobacterium tuberculosis, ATCC25177|H37RA, read-out: Mtb MIC
Cdk2-Cyclin A = Cdk2-Cyclin A (Homo sapiens, UniProt P24941); experiment: biochemical; assay type: biochemical
PknB [2] = target: T1, PknB (Mycobacterium tuberculosis, UniProt P9WI81); experiment: biochemical; assay type: binding
Target sequence in this assay (P9WI81 1-331 limits assumed): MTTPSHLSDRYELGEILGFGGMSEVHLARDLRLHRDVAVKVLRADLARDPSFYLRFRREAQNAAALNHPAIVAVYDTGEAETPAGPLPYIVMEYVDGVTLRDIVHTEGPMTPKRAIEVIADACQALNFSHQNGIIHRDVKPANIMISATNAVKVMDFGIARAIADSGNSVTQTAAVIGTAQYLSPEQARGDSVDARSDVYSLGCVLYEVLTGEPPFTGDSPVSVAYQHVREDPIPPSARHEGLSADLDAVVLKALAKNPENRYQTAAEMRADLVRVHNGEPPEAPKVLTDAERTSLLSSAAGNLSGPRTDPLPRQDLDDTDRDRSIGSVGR

PknB [3] = target: T1, PknB; experiment: biochemical; assay type: biochemical
Target sequence in this assay (P9WI81 1-331 limits assumed): as above

[4] = test system: Zebrafish (Danio rerio) embryos; details: 5 days
physchem = details: pH 7.4, LogD7.4, pH 7.4
[5] = test system: 453 human kinases (403 wild-type and 50 mutant); assay type: binding; details: 10 μM, KinomeSCAN
[6] = test system: THP-1 human macrophage cell line
PknB [7] = target: T1, PknB; assay type: binding; details: DiscoverX Kd
Target sequence in this assay (P9WI81 whole entry): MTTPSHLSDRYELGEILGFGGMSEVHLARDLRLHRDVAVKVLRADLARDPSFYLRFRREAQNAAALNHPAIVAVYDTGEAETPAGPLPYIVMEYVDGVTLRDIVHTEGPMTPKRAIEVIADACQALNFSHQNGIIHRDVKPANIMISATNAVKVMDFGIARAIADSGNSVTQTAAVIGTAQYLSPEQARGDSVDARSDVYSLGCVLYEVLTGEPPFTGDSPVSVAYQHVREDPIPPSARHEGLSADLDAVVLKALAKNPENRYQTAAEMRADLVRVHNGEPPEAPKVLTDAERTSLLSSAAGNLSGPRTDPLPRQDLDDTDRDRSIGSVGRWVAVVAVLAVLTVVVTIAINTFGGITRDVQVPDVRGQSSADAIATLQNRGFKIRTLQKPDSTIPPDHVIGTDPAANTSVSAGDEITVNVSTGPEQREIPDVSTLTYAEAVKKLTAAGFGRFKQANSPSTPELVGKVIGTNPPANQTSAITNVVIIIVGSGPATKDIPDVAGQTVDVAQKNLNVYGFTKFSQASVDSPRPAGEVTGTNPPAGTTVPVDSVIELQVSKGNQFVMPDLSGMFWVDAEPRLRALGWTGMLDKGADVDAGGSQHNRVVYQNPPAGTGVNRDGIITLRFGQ

Row | Structure (SMILES) | MIC [1] [µM] | % D. rario survival @ 5 μM [4] [%] | reduction in Cdk2 biochemical inhibition relative to 1 (Cdk2-Cyclin A) | further results
1 | CN1CCN(c2ccc(Nc3nccc(-c4cccnc4)n3)cc2C(F)(F)F)CC1 [Compound 4] | – | – | – | worse Mtb MIC than 1 [1]: 2–4 fold
2 | CN1CCN(c2ccc(Nc3nccc(-c4ccncc4)n3)cc2C(F)(F)F)CC1 [Compound 5] | 50 (≈ 20.7 µg/mL) | 30 | – | IC50 (Cdk2-Cyclin A): 4.6 µM; worse Mtb MIC than 1 [1]: 2–4 fold; Kd (PknB [2]): 0.078 µM; IC50 (PknB [3]): 2.1 µM; Ki (PknB [3]): 0.58 µM; logD (physchem): 3.57
3 | CN1CCN(c2ccc(Nc3nccc(-c4ccnc(Cl)c4)n3)cc2C(F)(F)F)CC1 [Compound 6] | – | ~100 | – | –
4 | CNc1cc(-c2ccnc(Nc3ccc(N4CCN(C)CC4)c(C(F)(F)F)c3)n2)ccn1 [Compound 8] | – | – | 28 fold | loss of PknB activity relative to 1 (PknB [3]; relative to 1): 6 fold
5 | CN1CCN(c2ccc(Nc3nccc(-c4ccccc4)n3)cc2C(F)(F)F)CC1 [Compound 9] | – | ~100 | greater than 28 fold | selectivity score (S-score) at 1% of control (S(1)) [5]: 0.084
6 | CN1CCN(c2ccc(Nc3nccc(-c4ccc(Cl)cc4)n3)cc2C(F)(F)F)CC1 [Compound 11] | – | – | greater than 28 fold | –
7 | Cc1ccc(-c2ccnc(Nc3ccc(N4CCN(C)CC4)c(C(F)(F)F)c3)n2)cc1 [Compound 12] | ≤ 19 | 0 | greater than 28 fold | –
8 | CN1CCN(c2ccc(Nc3nccc(-c4cccc(Cl)c4)n3)cc2C(F)(F)F)CC1 [Compound 16] | ≤ 19 | – | greater than 28 fold | improvement in cytotoxicity over 1 ([6]; THP-1, relative to 1): > 2 log unit
9 | CN1CCN(c2ccc(Nc3nccc(-c4cccc([N+](=O)[O-])c4)n3)cc2C(F)(F)F)CC1 [Compound 19] | ≤ 19 | 0 | – | affinity for PknB vs GSK3β, mTOR, and Pim1 (PknB [7]): > 100 fold; selectivity score (S-score) at 1% of control (S(1)) [5]: 0.12
10 | CN1CCN(c2ccc(Nc3nccc(-c4ccc5ccccc5c4)n3)cc2C(F)(F)F)CC1 [Compound 20] | – | ~100 | – | improvement in THP-1 cytotoxicity relative to 1 ([6]; relative to 1): > 60 fold; lower MIC than inhibitor 19 [1]: 2 fold; loss in PknB activity relative to 19 (PknB [3]): 3 fold
